Legend:
[1] = biological target: T1, KMT9 (Homo sapiens, UniProt Q9Y5N5); assay: KMT9 thermal shift assay (SyproOrange); format: binding; settings: ΔTm; 500 µM compound, 2 μM KMT9, 5X SO; read-out: Thermal shift
T1 sequence (Q9Y5N5 1-214): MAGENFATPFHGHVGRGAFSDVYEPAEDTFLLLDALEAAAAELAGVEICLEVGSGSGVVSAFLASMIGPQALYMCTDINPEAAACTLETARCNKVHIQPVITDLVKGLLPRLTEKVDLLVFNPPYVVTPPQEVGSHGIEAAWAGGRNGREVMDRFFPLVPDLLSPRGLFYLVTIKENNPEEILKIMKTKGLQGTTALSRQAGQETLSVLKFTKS
T1 sequence (Q9UI30 1-120 isoform Q9UI30-2 partner): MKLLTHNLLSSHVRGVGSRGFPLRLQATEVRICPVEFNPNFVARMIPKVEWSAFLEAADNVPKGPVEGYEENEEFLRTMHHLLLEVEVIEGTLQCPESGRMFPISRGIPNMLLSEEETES
Outline: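 Recombinant KMT9 was incubated with compound and SyproOrange at 25° C in 50 mM BTP pH 8.5, 1 mM MgCl2, 1 mM DTT. It was then heated from 20° C to 95° C at 1° C per 15 s with fluorescence read each step. Tm came from a Boltzmann sigmoidal fit; ΔTm relative to DMSO control, binned in 5 K ranges.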

[2] = biological target: T1, KMT9; assay: KMT9 methyltransferase inhibition assay, 3H-SAM scintillation (entries 1-154); format: biochemical; settings: entries 1-154: 3H-SAM assay, 25 nM KMT9, 5 μM ETF1
Outline: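 Final 25 nM KMT9, 5 μM ETF1 (residues 140-275), 0.3 μM 3H-SAM plus 0.7 μM SAM in pH 8.5 BTP buffer, 2 h at 30° C. TCA-quenched, filter-washed, methylation counted by scintillation; % inhibition vs DMSO and no-enzyme controls, IC50 from four-parameter fit.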

[3] = biological target: T1, KMT9; assay: Microscale thermophoresis (MST) KMT9 binding; settings: microscale thermophoresis, His-tag labelled KMT9 (20 nM); read-out: MST
Outline: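 His-tagged KMT9 (20 nM), RED-Tris-NTA labelled, titrated with varying compound concentrations in 25 mM HEPES pH 7.5, 100 mM NaCl, 1 mM DTT, 0.05% Tween. MST at 40% MST and 100% LED power, Nano-RED excitation; Kd binned A ≤10 nM, B 10–100, C 100–1000, D >1000 nM.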

| Structure (SMILES) | ΔTm at 500 µM [1] [°C] | IC50 [2] [nM] | Kd [3] [nM] |
| --- | --- | --- | --- |
| CNc1ncnc2c1ccn2[C@@H]1C[C@H](C(=O)NCC2CCCCN2)[C@@H](O)[C@H]1O (stereo partly drawn) [350 (254), (1S,2R,3S,4R)-2,3-dihydroxy-4-(4-(methylamino)-7H-pyrrolo[2,3-d]pyrimidin-7-yl)-N-(piperidin-2-ylmethyl) cyclopentane-1-carboxamide] | ≤ 10 | > 10000 | > 1000 |
| CNc1ncnc2c1ccn2[C@@H]1C[C@H](C(=O)NCCCNCc2ccc(Oc3ccc(Cl)cc3)c(F)c2)[C@@H](O)[C@H]1O [352 (256), (1S,2R,3S,4R)—N-(3-((4-(4-chlorophenoxy)-3-fluorobenzyl)amino)propyl)-2,3-dihydroxy-4-(4-(methylamino)-7H-pyrrolo[2.3-d]pyrimidin-7-yl)cyclopentane-1-carboxamide] | 10 to 15 | > 10000 | 100 to 1000 |
| CNc1ncnc2c1ccn2[C@@H]1C[C@H](C(=O)NCCNCCc2cccc(Oc3ccccc3)c2)[C@@H](O)[C@H]1O [356 (260), (1S,2R,3S,4R)-2,3-dihydroxy-4-(4-(methylamino)-7H-pyrrolo[2,3-d]pyrimidin-7-yl)-N-(2-((3-phenoxyphenethyl)amino)ethyl) cyclopentane-1-carboxamide] | 10 to 15 | > 10000 | 100 to 1000 |
| CNc1ncnc2c1ccn2[C@@H]1C[C@H](CNCC(F)(F)CNCCc2ccc3ccccc3c2)[C@@H](O)[C@H]1O [357 (261), (1S,2R,3R,5R)-3-(((2,2-difluoro-3-((2-(naphthalen-2-yl)ethyl)amino)propyl)amino)methyl)-5-(4-(methylamino)-7H-pyrrolo[2,3-a]pyrimidin-7-yl) cyclopentane-1,2-diol] | ≤ 10 | > 10000 | > 1000 |
| CNc1ncnc2c1ccn2[C@@H]1C[C@H](CN2CC(CNCCc3ccc4ccccc4c3)C2)[C@@H](O)[C@H]1O [360 (264), (1R,2S,3R,5R)-3-(4-(methylamino)-7H-pyrrolo[2,3-d]pyrimidin-7-yl)-5-((3-(((2-(naphthalen-2-yl)ethyl)amino)methyl)azetidin-1-yl)methyl) cyclopentane-1,2-diol] | ≤ 10 | > 10000 | > 1000 |

Second part, the compound after the results:

| ΔTm at 500 µM [1] [°C] | IC50 [2] [nM] | Kd [3] [nM] | Structure (SMILES) |
| --- | --- | --- | --- |
| 10 to 15 | 1000 to 10000 | 10 to 100 | CNc1ncnc2c1ccn2[C@@H]1C[C@H](C(=O)N(C)CCCNCCc2cccc(Oc3ccccc3)c2)[C@@H](O)[C@H]1O [351 (255), (1S,2R,3S,4R)-2,3-dihydroxy-N-methyl-4-(4-(methylamino)-7H-pyrrolo[2,3-a]pyrimidin-7-yl)-N-(3-((3-phenoxyphenethyl)amino)propyl) cyclopentane-1-carboxamide] |
| 10 to 15 | 1000 to 10000 | 100 to 1000 | CNc1ncnc2c1ccn2[C@@H]1C[C@H](C(=O)NCCCNCc2cccc(Oc3ccccc3)c2)[C@@H](O)[C@H]1O [353 (257), (1S,2R,3S,4R)-2,3-dihydroxy-4-(4-(methylamino)-7H-pyrrolo[2,3-d]pyrimidin-7-yl)-N-(3-((3-phenoxybenzyl)amino)propyl) cyclopentane-1-carboxamide] |
| 15 to 20 | 1000 to 10000 | 10 to 100 | CNc1ncnc2c1ccn2[C@@H]1C[C@H](C(=O)NCCCNCCc2cccc(Oc3ccccc3)c2)[C@@H](O)[C@H]1O [354 (258), (1S,2R,3S,4R)-2,3-dihydroxy-4-(4-(methylamino)-7H-pyrrolo[2,3-d]pyrimidin-7-yl)-N-(3-((3-phenoxyphenethyl)amino)propyl) cyclopentane-1-carboxamide] |
| 10 to 15 | 100 to 1000 | 100 to 1000 | CNc1ncnc2c1ccn2[C@@H]1C[C@H](C(=O)NCCCNCCc2ccc(Oc3ccc(Cl)cc3)c(F)c2)[C@@H](O)[C@H]1O [355 (259), (1S,2R,3S,4R)—N-(3-((4-(4-chlorophenoxy)-3-fluorophenethyl)amino)propyl)-2,3-dihydroxy-4-(4-(methylamino)-7H-pyrrolo[2,3-a]pyrimidin-7-yl) cyclopentane-1-carboxamide] |
